Results published in PubChem BioAssay (NCI).
“And” between values parts separate entries of the source, which are not always exact repeats. Equal values may be shown once.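 1) Cells in 96-well plates. 2) Compound, 48 h, 5 concentrations. 3) Linear interpolation between surrounding doses. 4) Unreached endpoint = highest concentration. GI50 = concentration required for 50% inhibition of growth. TGI: concentration producing complete growth inhibition.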

Columns and labels:
Test in all cases: NCI tumour cell line growth inhibition, 48 h
[1] = system: RPMI-8226 leukemia
[2] = system: SNB-75 CNS
[3] = system: SK-MEL-5 melanoma
[4] = system: UACC-257 melanoma
[5] = system: IGROV1 ovarian
[6] = system: HOP-92 NSCLC
[7] = system: KM12 colon
[8] = system: HCT-15 colon
[9] = system: OVCAR-8 ovarian
[10] = system: NCI/ADR-RES ovarian

| SMILES | TGI [1] [µM] | TGI [2] | TGI [3] | TGI [4] [µM] | TGI [5] | TGI [6] [µM] | TGI [7] [µM] | TGI [8] [µM] | TGI [9] [µM] | TGI [10] [µM] | GI50 [1] [µM] | GI50 [2] [µM] | GI50 [3] [µM] | GI50 [4] | GI50 [5] [µM] | GI50 [6] [µM] | GI50 [7] [µM] | GI50 [8] [µM] | GI50 [9] [µM] | GI50 [10] [µM] |
| --- | --- | --- | --- | --- | --- | --- | --- | --- | --- | --- | --- | --- | --- | --- | --- | --- | --- | --- | --- | --- |
| O=C(c1ccc(Cl)cc1)C(O)c1ccc(Cl)cc1 (configuration not stated) | > 100 | > 100 µM | > 100 µM | > 100 | > 100 µM | > 100 | > 100 | > 100 | > 100 | > 100 | – | – | – | – | – | – | – | – | – | – |
| CO[C@H]1CC(O[C@@H]2/C(C)=C/C[C@@H]3C[C@@H](C[C@]4(CC[C@H](C)[C@@H](C5CCCCC5)O4)O3)OC(=O)[C@@H]3C=C(C)/C(=N/O)[C@H]4OC/C(=C\C=C\[C@@H]2C)[C@]43O)O[C@@H](C)C1O (some centres not stated) | 2.72 | 2.57 µM | 2.29 µM | 2.55 | 2.69 µM | 1.57 | 1.52 | 1.95 | 2.41 | 2.9 | 0.944 | 0.867 | 1 | 0.987 µM | 1.07 | 0.648 | 0.826 | 0.873 | 0.962 | 1.07 |
| CCCCCC/C=C\CCCCCCCCCC1=C(CN2CCN(C)CC2)C(=O)C=C(OC)C1=O | 3.9 | 16.6 µM | 19.3 µM | 28.6 | 18.3 µM | 6.26 | 21 | 7.87 | 17 | 11.5 | – | – | – | – | – | – | – | – | – | – |
| NS(=O)(=O)c1cc(C(=O)O)c(O)c2ccccc12 | > 100 | > 100 µM | > 100 µM | > 100 | > 100 µM | > 100 | > 100 | > 100 | > 100 | > 100 | – | – | – | – | – | – | – | – | – | – |
| O=C1/C(=C/c2ccc(Cl)cc2)CNC/C1=C\c1ccc(Cl)cc1 | 0.722 | 10.3 µM and > 29.5 µM | 22.1 µM and 11.3 µM | – | 4.15 µM and 3.49 µM | > 26.2 | 3.07 | 2.6 | – | 9.61 | – | – | – | 1.78 µM and 7.7 µM | – | – | – | – | – | – |
| CCN(Cc1cccc(Cl)c1)c1ccc(CO)c(Cl)c1 | 28.1 | 30.2 µM | 19.9 µM | 0.404 | 1.62 µM | 10.7 | 26.8 | 25.9 | 23.3 | 23.8 | 4.35 | 12 | 5.73 | 0.134 µM | 0.111 | 1.29 | 12.9 | 9.93 | 10.5 | 10.8 |
| COc1cccc(Nc2nc3ccccc3c3occc23)c1 | > 100 | – | 20.9 µM | 26.8 | 25.9 µM | 31.1 | 10.7 | > 100 | 42.7 | 32.1 | 15.9 | – | 6.16 | 13.2 µM | 4.95 | 13 | 3.13 | 13.2 | 15.8 | 17.9 |
| C=CCC(N[C@H](CO)c1ccccc1)c1cn(Cc2ccccc2Cl)c(=O)n(Cc2ccccc2Cl)c1=O (some centres not stated) | 12.5 | 64.8 µM | 30.1 µM | 53.4 | 66.3 µM | 23.1 | 73.3 | 35.2 | > 100 | > 100 | 3.73 | 16.6 | 14.6 | 23.3 µM | 13.5 | 3.92 | 17.5 | 9.27 | 15.2 | 9.26 |
